Measured values: the supplement of paper PMC10307832

Experiments:
Assay in all cases: relative viability (nuclei count vs DMSO), 5 days (fraction); higher = more cells survive
[1] = compound: CC1=C(C=C(C=C1)NC(=O)C2=CC(=CC=C2)C(C)(C)C#N)NC3=CC4=C(C=C3)N=CN(C4=O)C [AZ628] + COc1cccc2cc(-c3nc([C@H]4CC[C@H](C(=O)O)CC4)n4ncnc(N)c34)[nH]c12 [OSI-027] (partner 0.5 µM)
Outline: (§1)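 For relative viability, nuclei counts in treated wells were divided by those in vehicle wells. Lung cancer cell lines had been pin-tool dosed in 1536-well plates the day after seeding and cultured for 5 days, then fixed and stained in one step (final 0.05% Triton X-100, 1% formaldehyde, 1 ug/ml Hoechst) and imaged at 4×. Doses were one drug alone or a fixed anchor-drug dose plus five library-drug doses (not always all listed) in √10 steps, and values are duplicate-plate medians.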

[2] = compound: CC1=C(C=C(C=C1)NC(=O)C2=CC(=CC=C2)C(C)(C)C#N)NC3=CC4=C(C=C3)N=CN(C4=O)C [AZ628] + O=C(c1cc(Cc2n[nH]c(=O)c3ccccc23)ccc1F)N1CCN(C(=O)C2CC2)CC1 [Olaparib] (partner 8 µM)
Outline: as §1

[3] = compound: C[As](C)SC[C@H](NC(=O)CC[C@H](N)C(=O)O)C(=O)NCC(=O)O [Darinaparsin] + CS(=O)(=O)N1CCN(Cc2cc3nc(-c4cccc5[nH]ncc45)nc(N4CCOCC4)c3s2)CC1 [Pictilisib] (partner 1 µM)
Outline: as §1

[4] = compound: C[As](C)SC[C@H](NC(=O)CC[C@H](N)C(=O)O)C(=O)NCC(=O)O [Darinaparsin] + O=C(c1cc(Cc2n[nH]c(=O)c3ccccc23)ccc1F)N1CCN(C(=O)C2CC2)CC1 [Olaparib] (partner 8 µM)
Outline: as §1

For 201T, the relative viability ([1]; first compound 0.08 µM) was 0.838, the relative viability ([1]; first compound 0.253 µM) was 0.707 and the relative viability ([1]; first compound 0.8 µM) was 0.689. For the same cell line, the relative viability ([1]; first compound 2.53 µM) was 0.761, the relative viability ([1]; first compound 8 µM) was 0.849 and the relative viability ([2]; first compound 0.08 µM) was 0.909. It also gave a relative viability ([2]; first compound 0.253 µM) of 0.865, a relative viability ([2]; first compound 0.8 µM) of 0.908 and a relative viability ([2]; first compound 2.53 µM) of 0.868. For the same cell line, the relative viability ([2]; first compound 8 µM) was 0.926, the relative viability ([3]; first compound 0.08 µM) was 0.757 and the relative viability ([3]; first compound 0.8 µM) was 0.622. For the same cell line, the relative viability ([3]; first compound 2.53 µM) was 0.623, the relative viability ([3]; first compound 8 µM) was 0.767 and the relative viability ([4]; first compound 0.08 µM) was 0.942. It also gave a relative viability ([4]; first compound 0.8 µM) of 0.851, a relative viability ([4]; first compound 2.53 µM) of 0.803 and a relative viability ([4]; first compound 8 µM) of 0.863.

A549 showed a relative viability ([2]; first compound 0.08 µM) of 0.299, a relative viability ([2]; first compound 0.253 µM) of 0.28 and a relative viability ([2]; first compound 0.8 µM) of 0.495. The relative viability ([2]; first compound 2.53 µM) was 0.348, the relative viability ([2]; first compound 8 µM) was 0.199 and the relative viability ([3]; first compound 0.08 µM) was 0.601. For the same cell line, the relative viability ([3]; first compound 0.8 µM) was 0.517, the relative viability ([3]; first compound 2.53 µM) was 0.344 and the relative viability ([3]; first compound 8 µM) was 0.653. It also gave a relative viability ([4]; first compound 0.08 µM) of 0.416, a relative viability ([4]; first compound 0.8 µM) of 0.337 and a relative viability ([4]; first compound 2.53 µM) of 0.31. For the same cell line, the relative viability ([4]; first compound 8 µM) was 0.471.

A-427 was tested, and the relative viability ([1]; first compound 0.08 µM) was 0.336, the relative viability ([1]; first compound 0.253 µM) was 0.286 and the relative viability ([1]; first compound 0.8 µM) was 0.236. The relative viability ([1]; first compound 2.53 µM) was 0.197, the relative viability ([1]; first compound 8 µM) was 0.169 and the relative viability ([2]; first compound 0.08 µM) was 0.85. For the same cell line, the relative viability ([2]; first compound 0.253 µM) was 0.73, the relative viability ([2]; first compound 0.8 µM) was 0.773 and the relative viability ([2]; first compound 2.53 µM) was 0.691. For the same cell line, the relative viability ([2]; first compound 8 µM) was 0.541, the relative viability ([3]; first compound 0.08 µM) was 0.893 and the relative viability ([3]; first compound 0.8 µM) was 0.761. For the same cell line, the relative viability ([3]; first compound 2.53 µM) was 0.757, the relative viability ([3]; first compound 8 µM) was 0.856 and the relative viability ([4]; first compound 0.08 µM) was 0.71. It also gave a relative viability ([4]; first compound 0.8 µM) of 0.8, a relative viability ([4]; first compound 2.53 µM) of 0.787 and a relative viability ([4]; first compound 8 µM) of 0.791.

Cell Line ABC-1 has a relative viability ([1]; first compound 0.08 µM) of 0.644, a relative viability ([1]; first compound 0.253 µM) of 0.402 and a relative viability ([1]; first compound 0.8 µM) of 0.53. The relative viability ([1]; first compound 2.53 µM) was 0.491, the relative viability ([1]; first compound 8 µM) was 0.297 and the relative viability ([2]; first compound 0.08 µM) was 0.987. It also gave a relative viability ([2]; first compound 0.253 µM) of 0.712, a relative viability ([2]; first compound 0.8 µM) of 0.868 and a relative viability ([2]; first compound 2.53 µM) of 0.508. The relative viability ([2]; first compound 8 µM) was 0.732, the relative viability ([3]; first compound 0.08 µM) was 0.793 and the relative viability ([3]; first compound 0.8 µM) was 0.648. The relative viability ([3]; first compound 2.53 µM) was 0.738, the relative viability ([3]; first compound 8 µM) was 0.904 and the relative viability ([4]; first compound 0.08 µM) was 1.14. The relative viability ([4]; first compound 0.8 µM) was 0.99, the relative viability ([4]; first compound 2.53 µM) was 1.02 and the relative viability ([4]; first compound 8 µM) was 1.08.

BEN gave a relative viability ([1]; first compound 0.08 µM) of 0.318, a relative viability ([1]; first compound 0.253 µM) of 0.278 and a relative viability ([1]; first compound 0.8 µM) of 0.32. For the same cell line, the relative viability ([1]; first compound 2.53 µM) was 0.281, the relative viability ([1]; first compound 8 µM) was 0.267 and the relative viability ([2]; first compound 0.08 µM) was 1.26. The relative viability ([2]; first compound 0.253 µM) was 0.912, the relative viability ([2]; first compound 0.8 µM) was 0.995 and the relative viability ([2]; first compound 2.53 µM) was 1.03. The relative viability ([2]; first compound 8 µM) was 1.02, the relative viability ([3]; first compound 0.08 µM) was 0.709 and the relative viability ([3]; first compound 0.8 µM) was 0.636. For the same cell line, the relative viability ([3]; first compound 2.53 µM) was 0.498, the relative viability ([3]; first compound 8 µM) was 0.659 and the relative viability ([4]; first compound 0.08 µM) was 1.21. It also gave a relative viability ([4]; first compound 0.8 µM) of 0.993, a relative viability ([4]; first compound 2.53 µM) of 1.06 and a relative viability ([4]; first compound 8 µM) of 1.08.

In the case of CAL-12T, the relative viability ([1]; first compound 0.08 µM) is reported as 0.891, the relative viability ([1]; first compound 0.253 µM) is reported as 0.572 and the relative viability ([1]; first compound 0.8 µM) is reported as 0.408. The relative viability ([1]; first compound 2.53 µM) was 0.345, the relative viability ([1]; first compound 8 µM) was 0.267 and the relative viability ([2]; first compound 0.08 µM) was 0.713. For the same cell line, the relative viability ([2]; first compound 0.253 µM) was 0.68, the relative viability ([2]; first compound 0.8 µM) was 0.781 and the relative viability ([2]; first compound 2.53 µM) was 0.637. The relative viability ([2]; first compound 8 µM) was 0.457, the relative viability ([3]; first compound 0.08 µM) was 0.392 and the relative viability ([3]; first compound 0.8 µM) was 0.335. For the same cell line, the relative viability ([3]; first compound 2.53 µM) was 0.473, the relative viability ([3]; first compound 8 µM) was 0.478 and the relative viability ([4]; first compound 0.08 µM) was 0.875. The relative viability ([4]; first compound 0.8 µM) was 0.617, the relative viability ([4]; first compound 2.53 µM) was 0.822 and the relative viability ([4]; first compound 8 µM) was 0.698.

Cell Line COR-L23 has a relative viability ([1]; first compound 0.08 µM) of 0.678, a relative viability ([1]; first compound 0.253 µM) of 0.669 and a relative viability ([1]; first compound 0.8 µM) of 0.602. The relative viability ([1]; first compound 2.53 µM) was 0.558, the relative viability ([1]; first compound 8 µM) was 0.302 and the relative viability ([2]; first compound 0.08 µM) was 0.459. For the same cell line, the relative viability ([2]; first compound 0.253 µM) was 0.365, the relative viability ([2]; first compound 0.8 µM) was 0.444 and the relative viability ([2]; first compound 2.53 µM) was 0.448. It also gave a relative viability ([2]; first compound 8 µM) of 0.317, a relative viability ([3]; first compound 0.08 µM) of 1.06 and a relative viability ([3]; first compound 0.8 µM) of 0.706. It also gave a relative viability ([3]; first compound 2.53 µM) of 0.41, a relative viability ([3]; first compound 8 µM) of 0.932 and a relative viability ([4]; first compound 0.08 µM) of 0.331. For the same cell line, the relative viability ([4]; first compound 0.8 µM) was 0.323, the relative viability ([4]; first compound 2.53 µM) was 0.316 and the relative viability ([4]; first compound 8 µM) was 0.358.

Cell Line COR-L 105 has a relative viability ([1]; first compound 0.08 µM) of 0.751, a relative viability ([1]; first compound 0.253 µM) of 0.837 and a relative viability ([1]; first compound 0.8 µM) of 0.795. The relative viability ([1]; first compound 2.53 µM) was 0.763, the relative viability ([1]; first compound 8 µM) was 0.46 and the relative viability ([2]; first compound 0.08 µM) was 0.754. For the same cell line, the relative viability ([2]; first compound 0.253 µM) was 0.83, the relative viability ([2]; first compound 0.8 µM) was 0.704 and the relative viability ([2]; first compound 2.53 µM) was 0.684. It also gave a relative viability ([2]; first compound 8 µM) of 0.816, a relative viability ([3]; first compound 0.08 µM) of 0.446 and a relative viability ([3]; first compound 0.8 µM) of 0.411. The relative viability ([3]; first compound 8 µM) was 0.429, the relative viability ([4]; first compound 0.08 µM) was 0.747 and the relative viability ([4]; first compound 0.8 µM) was 0.695. The relative viability ([4]; first compound 2.53 µM) was 0.758 and the relative viability ([4]; first compound 8 µM) was 0.69.
